According to PubChem BioAssay AID588646 (The Scripps Research Institute Molecular Screening Center, 2011):
Active and inactive are the calls of the source.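 The calls were made as follows: active = phosphorylated p38 level fell or rose by at least 30% against DMSO-treated cells; inactive = change under 30% either way.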

Molecular target: Mitogen-activated protein kinase 14 (Homo sapiens) (UniProt Q16539)
Assay: phospho-p38 protein level change, either direction, late-stage follow-up, counter-screen for KLF5 inhibitor project, cell-based, HCT116 colorectal carcinoma, chemiluminescent western blot (AID 588646)
Conditions: 24 h, at 10 µM; for inhibition: measured here: phospho-p38 inhibition percent

Sequence of Mitogen-activated protein kinase 14 (Homo sapiens) (Q16539 whole entry, looked up): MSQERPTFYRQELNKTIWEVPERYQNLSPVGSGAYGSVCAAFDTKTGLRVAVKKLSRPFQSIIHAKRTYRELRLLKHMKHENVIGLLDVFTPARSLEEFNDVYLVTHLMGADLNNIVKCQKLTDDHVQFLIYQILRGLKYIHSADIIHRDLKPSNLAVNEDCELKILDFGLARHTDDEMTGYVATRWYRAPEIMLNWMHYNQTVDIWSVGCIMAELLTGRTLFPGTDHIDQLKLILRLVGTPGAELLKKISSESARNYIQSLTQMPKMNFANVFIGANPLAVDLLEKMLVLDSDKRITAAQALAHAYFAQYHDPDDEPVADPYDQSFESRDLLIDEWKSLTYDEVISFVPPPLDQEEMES

| fold change | inhibition [%] | SMILES |
| --- | --- | --- |
| 2.03 | -103 | CN(C(=O)COC(=O)/C=C/c1cccc([N+](=O)[O-])c1)C1CCS(=O)(=O)C1 (stereo not given) |
| -1.14 (inactive) | 11.9 | CN(C(=O)CNC(=O)/C=C/c1cccc(Cl)c1)C1CCS(=O)(=O)C1 (stereo not given) |
| 7.64 |  | CN(C(=O)CNC(=O)/C=C/c1cccc(Cl)c1)C1CCS(=O)(=O)CC1 |
